Results on 11 compounds are retold here after patent US11292758B2, “Compounds and methods for delivery of prostacyclin analogs” (United Therapeutics Corporation, priority 2003, dated 2022).

Series [1] is described as follows: Treprostinil plasma concentrations in rats after a single intraduodenal dose of prodrugs (Example 3). As to conditions: rat; for Tmax (of Treprostinil) / Maximum Treprostinil concentrations: intraduodenal; for Maximum Treprostinil concentrations: 5 minutes post-dosing; for adverse reactions following intraduodenal administration: single intraduodenal dose. The source says:
This example illustrates a pharmacokinetic study of treprostinil following administration of a single duodenal dose of treprostinil and various prodrugs of the present invention.
In this study, the area under the curve of Treprostinil in male Sprague-Dawley rats following a single intraduodenal dose of treprostinil monophosphate (ring), treprostinil monovaline (ring), treprostinil monoalanine (ring) or treprostinil monoalanine (chain), prodrugs of treprostinil was compared. The compounds were as follows:
This solution was further diluted with 1.50 mL of PEG 400:Polysorbate 80:Water, 40:1:49.
A 50 mg/mL solution of treprostinil monovaline (ring) was prepared in dimethylacetamide (DMA). A 25 μL aliquot of the 50 mg/mL stock solution was then diluted with 175 μL of DMA and 1.8 mL of PEG 400:Polysorbate 80:Water, 40:1:49.
This solution was further diluted with 1.60 mL of PEG 400:polysorbate 80:Water, 40:1:49. The final concentration of the dosing vehicle was 0.590 mg/mL of treprostinil monoalanine (ring) equivalent to 0.5 mg/mL of Treprostinil.
A solution of treprostinil monoalanine (chain) was prepared by dissolving 0.83 mg of treprostinil monoalanine (chain) in 0.14 mL of dimethylacetamide (DMA) until dissolved. This solution was further diluted with 1.26 mL of PEG 400:Polysorbate 80:Water, 40:1:49.
The plasma concentrations of Treprostinil following […] of each prodrug were evaluated in male Sprague-Dawley rats. […] All groups were dosed on day 1 of the study.
Animals were dosed via an indwelling duodenal cannula.
The blood samples were withdrawn and placed into tubes containing 30 μL of a solution of 500 units per mL of heparin in saline, and centrifuged at 13,000 rpm for 10 minutes. Approximately 200 μL of plasma was then removed and dispensed into appropriately labeled polypropylene tubes containing 4 μL of acetic acid in order to stabilize any prodrug remaining in the samples. The plasma samples were frozen at −20° C. and were transported on ice to Absorption Systems Exton Facility. There they were stored in a −80° C. freezer pending analysis.
Plasma samples were analyzed using the methods described above. In brief, Treprostinil was extracted from the plasma via solid phase extraction then analyzed by LC/MS/MS. The lower limit of quantification (LLOQ) of the analytical method was 0.03 ng/mL.
Pharmacokinetic analysis was performed on the plasma concentration of Treprostinil for each individual rat at each time point and on the average plasma concentration for all three rats in the group for each time point.
The following formula was used to determine relative bioavailability (F): Relative F=(AUC(Prodrug Dose)/Dose)/(AUC(Treprostinil Dose)/Dose)*100

Series [2] in a line: Treprostinil plasma concentrations in rats after a single oral dose of prodrugs (Example 2). It counts as in vivo, male Sprague-Dawley rats. The note with it: rat; for Treprostinil AUC compared with dosing the active compound: oral; for adverse reactions following oral administration: single oral dose. The method, then: In this Example, Treprostinil concentrations were determined in male Sprague-Dawley rats following a single oral dose of the following compounds:
A solution of treprostinil methyl ester was prepared by dissolving 2.21 mg of treprostinil methyl ester with 0.85 mL of dimethylacetamide (DMA). […] The final concentration of the dosing vehicle was 0.26 mg/mL of treprostinil methyl ester equivalent to 0.25 mg/mL of Treprostinil.
A solution of treprostinil benzyl ester was prepared by dissolving 2.58 mg of treprostinil benzyl ester with 0.84 mL of dimethylacetamide (DMA). […] The final concentration of the dosing vehicle was 0.268 mg/mL of treprostinil benzyl ester equivalent to 0.25 mg/mL of Treprostinil.
A solution of treprostinil diglycine was prepared by dissolving 1.86 mg of compound with 0.58 mL of dimethylacetamide (DMA). […] The final concentration of the dosing vehicle was 0.323 mg/mL of treprostinil diglycine equivalent to 0.25 mg/mL of Treprostinil.
Groups I-III were dosed on the same day.
Animals were dosed via oral gavage.
Plasma samples were analyzed as described in Example 1. In brief, Treprostinil was extracted from the plasma via liquid-liquid extraction then analyzed by LC/MS/MS. The analytical validation results were reported previously in Example 1. […] Samples were not assayed for unchanged prodrug.

Series [3] can be described thus: Moisture sorption / hygroscopicity of treprostinil diethanolamine polymorphs. The class given is physicochemical. The note with it: for weight gain in humidity chamber: 23 days. How it is done: The initial material synthesized (termed Form A) was characterized using X-ray powder diffraction (XRPD), differential scanning calorimetry (DSC), thermogravimetry (TG), hot stage microscopy, infrared (IR) and Raman spectroscopy, and moisture sorption. The IR and Raman spectra for Form A are shown in FIGS. 16 and 17, respectively. […] The moisture sorption data are shown graphically in FIG. 19. […] In addition, hygroscopicity of treprostinil diethanolamine was evaluated in humidity chambers at approximately 52% RH and 68% RH. […] Upon desorption from 95% down to 5% RH, the sample loses approximately 47%.

The nature of series [4]: Clinical Study 01-101: escalating doses of UT-15C oral solution. As to conditions: for mean absolute bioavailability: based on historical intravenous treprostinil sodium data. How it is done: Prior to proceeding directly into clinical studies with a sustained release (SR) solid dosage form of UT-15C (treprostinil diethanolamine), a determination of the pharmacokinetics of an oral “immediate release” solution was performed.
A Safety, Tolerability, and Pharmacokinetic Study of Multiple Escalating Doses of UT-15C (Treprostinil Diethanolamine) Administered as an Oral Solution in Healthy Adult Volunteers (Including Study of Bioavailability).
Study endpoints included standard safety assessments (adverse events, vital signs, laboratory parameters, physical examinations, and electrocardiograms) as well as pharmacokinetic parameters.

For series [5] the following is noted: slurry inter-conversion in isopropanol and tetrahydrofuran. The source says: Form A is made according to the methods in Table 15. Form B is made from Form A, in accordance with the procedures of Table 16.
For series [6] the following is noted: subcutaneous infusion; cited from earlier work.

On to `CCCCC[C@@H](CC[C@@H]1[C@H]2Cc3cccc(OCC(=O)O)c3C[C@H]2C[C@H]1O)OC(=O)[C@H](C)N` [treprostinil monoalanine (chain), 3′-L-Alanyl Ester of Treprostinil], for which, in series [1], the “Tmax (of Treprostinil)” value is 5 min, the “Maximum Treprostinil concentrations” value was “approximately 9 ng/mL” and the “adverse reactions following intraduodenal administration” value is “No adverse reactions were observed”.

With `CCCCCC(O)CCC1C(OC(=O)C(C)N)CC2Cc3c(cccc3OCC(=O)O)CC21` [treprostinil monoalanine (ring), 2-L-Alanine Ester of Treprostinil], in series [1], the “Tmax (of Treprostinil)” value is 60 min and the “adverse reactions following intraduodenal administration” value was “No adverse reactions were observed”.

In the case of `CCCCC[C@H](O)CC[C@@H]1[C@H]2Cc3cccc(OCC(=O)OC)c3C[C@H]2C[C@H]1O` [Treprostinil methyl ester, Methyl Ester of Treprostinil], in series [2], the “Treprostinil AUC compared with dosing the active compound” value was “less than that after dosing the active compound” and the “adverse reactions following oral administration” value is reported as “No adverse reactions were observed”.

Take `CCCCCC(O)CCC1C(OP(=O)(O)O)CC2Cc3c(cccc3OCC(=O)O)CC21` (centres unmarked) [treprostinil monophosphate (ring), 2-Monophosphate Ester of Treprostinil]: in series [1], the “Tmax (of Treprostinil)” value is 5 min, the “Maximum Treprostinil concentrations” value is on record as “approximately 9 ng/mL” and the “adverse reactions following intraduodenal administration” value was “No adverse reactions were observed”.

For `CCCCC[C@H](O)CC[C@@H]1[C@H]2Cc3cccc(OCC(=O)O)c3C[C@H]2C[C@H]1O.OCCNCCO` [UT-15C, Treprostinil Diethanolamine], the “weight gain in humidity chamber” value was 4.9% in series [3] (~52% RH) and 28% in series [3] (~68% RH). Moreover, the “Treprostinil plasma concentrations detectable” value in series [4] was “detectable in all subjects”. The “changes in hematology, clinical chemistry, urinalysis, vital signs, physical exams, and ECGs” value in series [4] is recorded as “no clinically significant, treatment emergent changes”. Further, in series [4], the “most frequently reported adverse events” value was “flushing, headache, and dizziness”. Also, the mean absolute bioavailability is given as 21% in series [4] (0.2 mg total dose), 23% in series [4] (0.5 mg total dose), 24% in series [4] (1.0 mg total dose) and 25% in series [4] (2.0 mg total dose). The “highest (treprostinil plasma) concentration observed” value in series [4] (after the third dose aliquot of the 2.0 mg total dose) is on record as 5.51 ng/mL. Further, the tolerability result in series [4] (all doses given) is listed as “well tolerated by the majority of subjects”. Moreover, in series [4] (each of the four dose aliquots), the “AUCinf and Cmax versus dose” value is “increased in a linear fashion with dose”.

On to `CCCCCC(O)CCC1C(OC(=O)C(N)C(C)C)CC2Cc3c(cccc3OCC(=O)O)CC21` [treprostinil monovaline (ring), 2-L-Valine Ester of Treprostinil], for which, in series [1], the “Tmax (of Treprostinil)” value was 120 min and the “adverse reactions following intraduodenal administration” value is reported as “No adverse reactions were observed”.

Take `CCCCC[C@H](O)CC[C@@H]1[C@H]2Cc3cccc(OCC(=O)O)c3C[C@H]2C[C@H]1O.OCCNCCO` [Form A]: the hygroscopicity result in series [3] is listed as “hygroscopic”. Moreover, the “weight gain during moisture sorption” value in series [3] (beginning between 65 to 75% RH) is given as over 33%. Besides, in series [5], the “thermodynamic stability of the crystal form” value is “metastable”.

For the compound `CCCCC[C@H](O)CC[C@@H]1[C@H]2Cc3cccc(OCC(=O)[O-])c3C[C@H]2C[C@H]1O.[Na+]` [treprostinil sodium, (1R,2R,3aS,9aS)-[[2,3,3a,4,9,9a-Hexahydro-2-hydroxy-1-[(3S)-3-hydroxyoctyl]-1H-benz[f]inden-5-yl]oxy]acetic acid monosodium salt], the absolute bioavailability in series [6] is on record as about 100%.

As to `CCCCC[C@@H](O)CC[C@@H]1C2Cc3cccc(OCC(=O)OCc4ccccc4)c3CC2C[C@H]1O` (some centres unmarked) [Treprostinil benzyl ester, Benzyl Ester of Treprostinil], in series [2], the “Treprostinil AUC compared with dosing the active compound” value was “greater than that after dosing of the active compound” and the “adverse reactions following oral administration” value is reported as “No adverse reactions were observed”.

Take `CCCCC[C@H](CC[C@@H]1C2Cc3cccc(OCC(=O)O)c3CC2C[C@H]1OC(=O)CN)OC(=O)CN` (some centres unmarked) [Treprostinil diglycine, Bis-Glycyl Ester of Treprostinil]: in series [2], the “Treprostinil AUC compared with dosing the active compound” value is listed as “greater than that after dosing of the active compound” and the “adverse reactions following oral administration” value is given as “No adverse reactions were observed”.

With `CCCCC[C@H](O)CC[C@@H]1[C@H]2Cc3cccc(OCC(=O)O)c3C[C@H]2C[C@H]1O.OCCNCCO` [Form B], the “weight loss in moisture sorption” value in series [3] (5% RH) is recorded as “minimal weight loss”. In series [3] (95% RH), the water absorbed result was “approximately 49%”. Also, the loss upon desorption entry in series [3] (from 95% down to 5% RH) is “approximately 47%”.
